From ChEMBL document CHEMBL1156131, “Discovery of pyrazol-3-ylamino pyrazines as novel JAK2 inhibitors” (Bioorg Med Chem Lett, 2009)

What was measured:
[1] = molecular target: T1, Tyrosine-protein kinase JAK2 (Homo sapiens, UniProt O60674); assay: Inhibition of JAK2 using 2 mM ATP as a substrate
[2] = molecular target: T1, Tyrosine-protein kinase JAK2; assay: Inhibition of JAK2 using 5 mM ATP as a substrate
[3] = molecular target: T1, Tyrosine-protein kinase JAK2; assay: Inhibition of Tel-fused JAK2
[4] = molecular target: Cyclin-dependent kinase 2 (Homo sapiens, UniProt P24941); assay: Inhibition of CDK2
[5] = molecular target: T2, Tyrosine-protein kinase JAK3 (Homo sapiens, UniProt P52333); assay: Inhibition of JAK3 using 5 mM ATP as a substrate
T2 sequence (P52333 whole entry): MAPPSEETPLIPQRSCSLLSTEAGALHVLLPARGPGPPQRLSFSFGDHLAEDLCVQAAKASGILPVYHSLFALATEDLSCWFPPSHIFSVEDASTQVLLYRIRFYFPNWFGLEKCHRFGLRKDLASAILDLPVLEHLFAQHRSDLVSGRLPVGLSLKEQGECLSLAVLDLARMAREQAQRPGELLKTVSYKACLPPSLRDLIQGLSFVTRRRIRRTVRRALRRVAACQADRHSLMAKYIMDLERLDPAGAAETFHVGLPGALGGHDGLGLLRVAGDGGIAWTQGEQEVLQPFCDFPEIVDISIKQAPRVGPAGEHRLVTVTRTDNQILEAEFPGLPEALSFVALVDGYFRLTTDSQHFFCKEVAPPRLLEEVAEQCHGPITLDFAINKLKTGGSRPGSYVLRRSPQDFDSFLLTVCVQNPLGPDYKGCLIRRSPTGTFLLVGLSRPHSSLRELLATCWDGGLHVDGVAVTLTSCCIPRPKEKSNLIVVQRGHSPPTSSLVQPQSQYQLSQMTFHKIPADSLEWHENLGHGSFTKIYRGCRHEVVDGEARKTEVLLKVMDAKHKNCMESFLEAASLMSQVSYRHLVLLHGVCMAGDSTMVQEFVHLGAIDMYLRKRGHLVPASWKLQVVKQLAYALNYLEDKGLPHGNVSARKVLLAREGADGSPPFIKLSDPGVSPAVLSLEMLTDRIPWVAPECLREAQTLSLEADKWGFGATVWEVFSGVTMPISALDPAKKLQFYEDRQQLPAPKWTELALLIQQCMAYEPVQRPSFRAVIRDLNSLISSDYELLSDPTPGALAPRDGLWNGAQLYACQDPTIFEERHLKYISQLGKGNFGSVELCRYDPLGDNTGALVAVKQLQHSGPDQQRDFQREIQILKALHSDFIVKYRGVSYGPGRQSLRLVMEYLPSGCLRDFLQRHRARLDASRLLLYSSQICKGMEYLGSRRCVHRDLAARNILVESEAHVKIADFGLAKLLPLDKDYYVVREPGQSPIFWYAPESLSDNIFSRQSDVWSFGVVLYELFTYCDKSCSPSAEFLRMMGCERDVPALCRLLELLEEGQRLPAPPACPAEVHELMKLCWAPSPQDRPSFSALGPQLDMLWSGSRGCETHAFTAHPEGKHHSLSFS

Aurora kinase B = Aurora kinase B (Homo sapiens, UniProt Q96GD4); assay: Inhibition of Aurora B
Sequence of Aurora kinase B (Q96GD4 whole entry): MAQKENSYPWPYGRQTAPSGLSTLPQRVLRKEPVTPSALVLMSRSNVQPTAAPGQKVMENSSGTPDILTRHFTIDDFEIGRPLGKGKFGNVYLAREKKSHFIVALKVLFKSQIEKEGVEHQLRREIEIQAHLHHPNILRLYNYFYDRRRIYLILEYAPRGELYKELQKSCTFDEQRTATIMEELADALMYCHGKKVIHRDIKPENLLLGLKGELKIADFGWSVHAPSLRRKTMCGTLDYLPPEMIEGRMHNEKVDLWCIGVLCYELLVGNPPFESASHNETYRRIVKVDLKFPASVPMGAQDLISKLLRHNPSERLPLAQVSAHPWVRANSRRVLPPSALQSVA

[6] = Clearance in Wistar rat at 10 mg/kg, po and 3 mg/kg, iv; type: ADME, organism-based; conditions: in vivo
[7] = Half life Beagle dog at 10 mg/kg, po and 3 mg/kg, iv; type: ADME, organism-based, Canis lupus familiaris; conditions: in vivo
[8] = molecular target: T3, Tyrosine-protein kinase JAK3 (Homo sapiens) (UniProt P52333); assay: Inhibition of Tel-fused JAK3
T3 sequence (whole entry): T2 sequence (P52333 whole entry)

[9] = Half life Wistar rat at 10 mg/kg, po and 3 mg/kg, iv; type: ADME, organism-based; conditions: in vivo
[10] = Clearance in Beagle dog at 10 mg/kg, po and 3 mg/kg, iv; type: ADME, organism-based, Canis lupus familiaris; conditions: in vivo
Mus musculus [11] = assay: Ex vivo inhibition of STAT5 phosphorylation in NCr mouse implanted with Tel-fused JAK expressing mouse BAF3 cells at 25 mg/kg, po after 2 hrs; type: functional; conditions: BaF3, 2 h
Mus musculus [12] = assay: Ex vivo inhibition of STAT5 phosphorylation in NCr mouse implanted with Tel-fused JAK expressing mouse BAF3 cells at 5 mg/kg, po after 2 hrs; type: functional; conditions: BaF3, 2 h
[13] = Volume of distribution at steady state in Beagle dog at 10 mg/kg, po and 3 mg/kg, iv; type: ADME, organism-based, Canis lupus familiaris; conditions: in vivo, read-out: Vdss
[14] = Volume of distribution at steady state in Wistar rat at 10 mg/kg, po and 3 mg/kg, iv; type: ADME, organism-based; conditions: in vivo, read-out: Vdss
Mus musculus [15] = assay: Ex vivo inhibition of STAT5 phosphorylation in NCr mouse implanted with Tel-fused JAK expressing mouse BAF3 cells at 10 mg/kg, po after 2 hrs; type: functional; conditions: BaF3, 2 h
[16] = molecular target: High affinity nerve growth factor receptor (Homo sapiens, UniProt P04629); assay: Inhibition of TRKA
Sequence of High affinity nerve growth factor receptor (P04629 whole entry, the tested form may be a part): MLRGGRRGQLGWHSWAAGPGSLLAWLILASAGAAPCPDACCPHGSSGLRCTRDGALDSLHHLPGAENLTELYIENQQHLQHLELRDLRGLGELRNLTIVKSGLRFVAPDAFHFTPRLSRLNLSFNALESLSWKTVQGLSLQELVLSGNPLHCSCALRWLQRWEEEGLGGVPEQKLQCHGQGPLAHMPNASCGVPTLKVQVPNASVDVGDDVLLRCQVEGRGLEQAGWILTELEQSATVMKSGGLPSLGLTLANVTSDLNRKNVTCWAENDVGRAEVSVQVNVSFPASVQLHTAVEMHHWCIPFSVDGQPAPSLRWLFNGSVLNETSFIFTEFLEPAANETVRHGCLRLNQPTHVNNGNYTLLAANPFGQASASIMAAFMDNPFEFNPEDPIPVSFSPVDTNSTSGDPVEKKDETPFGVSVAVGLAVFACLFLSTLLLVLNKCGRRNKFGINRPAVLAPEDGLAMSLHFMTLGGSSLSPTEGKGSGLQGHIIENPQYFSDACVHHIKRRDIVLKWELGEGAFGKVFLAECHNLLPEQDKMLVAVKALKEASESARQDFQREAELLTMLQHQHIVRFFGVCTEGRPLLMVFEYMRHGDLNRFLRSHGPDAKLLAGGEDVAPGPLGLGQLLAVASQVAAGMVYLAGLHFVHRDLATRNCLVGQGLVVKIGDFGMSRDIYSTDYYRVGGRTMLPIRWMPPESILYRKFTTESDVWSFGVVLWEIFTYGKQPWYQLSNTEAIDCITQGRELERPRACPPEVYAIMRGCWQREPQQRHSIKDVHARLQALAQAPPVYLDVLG

Mus musculus [17] = assay: Ex vivo inhibition of STAT5 phosphorylation in NCr mouse implanted with Tel-fused JAK expressing mouse BAF3 cells at 25 mg/kg, po after 4 hrs; type: functional; conditions: BaF3, 4 h

T1 sequence (O60674 whole entry): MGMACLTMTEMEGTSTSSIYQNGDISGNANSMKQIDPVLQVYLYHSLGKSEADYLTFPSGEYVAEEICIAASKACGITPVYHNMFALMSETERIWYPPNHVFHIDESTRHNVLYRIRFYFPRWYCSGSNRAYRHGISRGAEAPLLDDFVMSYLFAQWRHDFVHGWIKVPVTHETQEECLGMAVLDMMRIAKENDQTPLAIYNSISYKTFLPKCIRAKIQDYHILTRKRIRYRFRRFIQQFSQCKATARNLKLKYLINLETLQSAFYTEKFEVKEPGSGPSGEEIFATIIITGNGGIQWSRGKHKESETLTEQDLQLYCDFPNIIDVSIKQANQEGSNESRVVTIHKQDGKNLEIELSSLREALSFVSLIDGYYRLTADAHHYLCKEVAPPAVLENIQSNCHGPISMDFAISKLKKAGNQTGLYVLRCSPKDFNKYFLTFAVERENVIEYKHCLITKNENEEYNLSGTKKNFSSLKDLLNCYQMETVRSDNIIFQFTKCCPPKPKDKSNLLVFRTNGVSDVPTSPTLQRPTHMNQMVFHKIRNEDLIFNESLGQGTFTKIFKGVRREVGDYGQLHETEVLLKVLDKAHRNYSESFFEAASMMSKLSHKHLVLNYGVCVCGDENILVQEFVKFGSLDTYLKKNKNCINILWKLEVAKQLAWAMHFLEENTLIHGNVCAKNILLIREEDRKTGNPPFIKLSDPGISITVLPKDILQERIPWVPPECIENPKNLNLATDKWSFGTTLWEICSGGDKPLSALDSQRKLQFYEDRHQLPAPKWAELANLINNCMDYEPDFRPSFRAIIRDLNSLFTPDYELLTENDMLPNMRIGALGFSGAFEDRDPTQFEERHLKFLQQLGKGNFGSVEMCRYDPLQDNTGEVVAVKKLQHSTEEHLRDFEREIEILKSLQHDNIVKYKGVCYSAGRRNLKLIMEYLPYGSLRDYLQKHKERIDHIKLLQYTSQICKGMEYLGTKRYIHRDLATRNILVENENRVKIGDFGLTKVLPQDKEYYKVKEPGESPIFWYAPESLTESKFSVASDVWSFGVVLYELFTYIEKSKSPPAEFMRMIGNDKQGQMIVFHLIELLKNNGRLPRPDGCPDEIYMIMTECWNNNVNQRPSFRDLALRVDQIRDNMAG

Structure (SMILES) | IC50 [1] [nM] | IC50 [2] [nM] | IC50 [5] [nM] | further results
Cc1cc(Nc2nc(N[C@@H](C)c3ccc(F)cn3)cnc2C)[nH]n1 | < 3 | 18 | – | –
Cc1cc(Nc2nc(N[C@H](C)c3ccc(F)cn3)c(C#N)nc2C)n[nH]1 | 75 | 907 | – | –
Cc1cc(Nc2cnc(C#N)c(N[C@@H](C)c3ncc(F)cn3)n2)n[nH]1 | < 3 | 6 | – | GI50 [3]: 160 nM; IC50 [4]: 50 nM
C[C@H](Nc1nc(Nc2cc(C3CC3)n[nH]2)cnc1C#N)c1ccc(F)cn1 | < 3 | 25 | 26900 | –
Cc1cc(Nc2nc(O[C@H](C)c3ccc(F)cn3)c(C#N)nc2C)[nH]n1 | 108 | 4670 | > 30000 | –
Cc1cc(Nc2nc(NC(C)c3ccc(F)cn3)c(C#N)nc2C)n[nH]1 (stereo unspecified) | < 3 | 47 | – | –
COc1cc(Nc2cncc(N[C@@H](C)c3ccc(F)cn3)n2)[nH]n1 | 3 | 8 | – | –
Cc1cc(Nc2nc(N[C@@H](C)c3ncc(F)cn3)c(C#N)nc2C)n[nH]1 | < 3 | 87 | 26500 | IC50 (Aurora kinase B): 850 nM; clearance [6]: 13 mL/min/kg; half-life [7]: 7 h; GI50 [8]: 7400 nM; half-life [9]: 1.6 h; clearance [10]: < 2 mL/min/kg; inhibition in vivo at 25 mg/kg (Mus musculus [11]): > 95%; GI50 [3]: 220 nM; inhibition in vivo at 5 mg/kg (Mus musculus [12]): > 80%; Vd [13]: 1.1 L/kg; Vd [14]: 1.6 L/kg; inhibition in vivo at 10 mg/kg (Mus musculus [15]): > 90%; IC50 [4]: 410 nM; IC50 [16]: 1480 nM
CC(C)Oc1cc(Nc2cncc(N[C@@H](C)c3ccc(F)cn3)n2)[nH]n1 | 10 | 421 | – | –
Cc1cc(Nc2nc(N[C@H](C)c3ncc(F)cn3)c(C#N)nc2C)[nH]n1 | 50 | 10400 | > 30000 | –
Cc1cc(Nc2cncc(N[C@@H](C)c3ncc(F)cn3)n2)n[nH]1 | < 3 | 3 | 13700 | –
Cc1cc(Nc2cncc(N[C@@H](C)c3ccc(F)cn3)n2)[nH]n1 | < 3 | 3 | 11700 | –
Cc1cc(Nc2nc(N[C@@H](C)c3ccc(F)cn3)c(C#N)nc2C)n[nH]1 | < 3 | 11 | – | GI50 [3]: 110 nM; IC50 [4]: 460 nM
Cc1cc(Nc2cnc(C#N)c(N[C@@H](C)c3ccc(F)cn3)n2)n[nH]1 | < 3 | 3 | 5170 | IC50 (Aurora kinase B): 680 nM; clearance [6]: 25 mL/min/kg; GI50 [8]: 1100 nM; half-life [9]: 1.2 h; inhibition in vivo at 25 mg/kg (Mus musculus [11]): > 90%; GI50 [3]: 60 nM; inhibition in vivo at 5 mg/kg (Mus musculus [12]): > 80%; inhibition in vivo at 25 mg/kg (Mus musculus [17]): > 90%; Vd [14]: 2.2 L/kg; inhibition in vivo at 10 mg/kg (Mus musculus [15]): > 90%; IC50 [4]: 30 nM; IC50 [16]: 670 nM
Cc1cc(Nc2cnc(C#N)c(NC(C)c3ccc(F)cn3)n2)n[nH]1 (stereo unspecified) | < 3 | 5 | 12800 | –
Cc1cc(Nc2nc(O[C@@H](C)c3ccc(F)cn3)c(C#N)nc2C)[nH]n1 | 4 | 142 | > 30000 | –
